Series [1] concerns NCI-H1975. Nature of the series: Induction of apoptosis in human NCI-H1975 cells assessed as increase in died cells with few cells containing intact DNA at 10 uM incubated for 48 hrs by DAPI staining based fluorescence microscopic analysis. The format is functional, cell-based.
Series [2] has as its target Epidermal growth factor receptor (Homo sapiens, UniProt P00533, L858R/T790M). The series can be described thus: Inhibition of N-terminal GST-tagged human recombinant EGFR T790M/L858R mutant (695 to end residues) expressed in baculovirus-infected Sf9 cells using poly (4:1 Glu,Tyr) peptide as substrate incubated for 60 mins in presence of ATP by ADP-Glo kinase assay. For orientation: In ADP-Glo the light output rises with the ADP produced.

The nature of series [3]: Selectivity index, ratio of IC50 for cytotoxicity against human HBE cells to IC50 for cytotoxicity against human NCI-H1975 cells harboring EGFR T790M/L858R mutant. The format is toxicity, cell-based. To be noted: read-out: Ratio IC50.
Series [4] deals with NCI-H1975. The series can be described thus: Inhibition of cell migration in human NCI-H1975 cells at 0.05 to 0.5 uM by scratch wound healing assay. The format is functional, cell-based. To be noted: dose 0.05-0.5 µM, time 24-48 hrs, TDE = time-dependent effect.
Series [5] in a line: Cytotoxicity against human HBE cells assessed as reduction in cell viability incubated for 72 hrs by MTT assay. Format: toxicity, cell-based, Epithelial cell. (In general: Tetrazolium assays rely on reduction of a dye to a coloured formazan, in cell work by metabolically active cells.)
Series [6] in a line: Cytotoxicity against human A-431 cells harboring wild type EGFR assessed as reduction in cell viability incubated for 72 hrs by MTT assay. The format is toxicity, cell-based.
The nature of series [7]: Cytotoxicity against human L02 cells assessed as reduction in cell viability incubated for 72 hrs by MTT assay. Format: toxicity, cell-based.
The test system of series [8] is NCI-H1975. The series can be described thus: Induction of morphological changes in human NCI-H1975 cells incubated for 48 hrs by AO/EB staining based fluorescence microscopic analysis. Format: functional, cell-based. To be noted: dose 1-10 µM, DDE = dose-dependent effect.
In series [9] the test system is NCI-H1975. The series can be described thus: Induction of apoptosis in human NCI-H1975 cells assessed as increase in number of nonviable apoptotic cells at 5 to 10 uM incubated for 48 hrs by AO/EB staining based fluorescence microscopic analysis. Format: functional, cell-based. To be noted: dose 5-10 µM.
In series [10] the test system is NCI-H1975. The series can be described thus: Induction of apoptosis in human NCI-H1975 cells assessed as chromatin shrinkage and accumulation in the nucleus at 1 to 10 uM incubated for 48 hrs by DAPI staining based fluorescence microscopic analysis. Format: functional, cell-based. To be noted: dose 1-10 µM.
A further series has as its system ASPC1. The series can be described thus: Antiproliferative activity against human ASPC1 cells harboring KRAS G12D mutant assessed as reduction in cell growth incubated for 72 hrs by MTT assay. Format: functional, cell-based. To be noted: ASPC1, 72 h.
In series [11] the test system is NCI-H1975. The series can be described thus: Induction of apoptosis in human NCI-H1975 cells assessed as nuclear fragmentation by measuring breakdown of nucleus into small membrane blebs with compacted DNA at 1 to 10 uM incubated for 48 hrs by DAPI staining based fluorescence microscopic analysis. The format is functional, cell-based. To be noted: dose 1-10 µM.

The nature of series [12]: Selectivity index, ratio of IC50 for cytotoxicity against human L02 cells to IC50 for cytotoxicity against human NCI-H1975 cells harboring EGFR T790M/L858R mutant. To be noted: read-out: Ratio IC50. The format is toxicity, cell-based.
For series [13], the system named is NCI-H1975. The series can be described thus: Antiproliferative activity against human NCI-H1975 cells harboring EGFR T790M/L858R mutant assessed as reduction in cell growth incubated for 72 hrs by MTT assay. Format: functional, cell-based. To be noted: NCI-H1975, 72 h.
The species entered for the next series is Homo sapiens. The series can be described thus: Selectivity index, ratio of IC50 for N-terminal GST-tagged human recombinant wild type EGFR (695 to end residues) expressed in baculovirus-infected Sf9 cells to IC50 for N-terminal GST-tagged human recombinant EGFR T790M/L858R mutant (695 to end residues) expressed in baculovirus-infected Sf9 cells. The format is functional.

Series [14] addresses Epidermal growth factor receptor (Homo sapiens, UniProt P00533). Nature of the series: Inhibition of N-terminal GST-tagged human recombinant wild type EGFR (695 to end residues) expressed in baculovirus-infected Sf9 cells using poly (4:1 Glu,Tyr) peptide as substrate incubated for 60 mins in presence of ATP by ADP-Glo kinase assay.
The next series deals with SW-620. Nature of the series: Antiproliferative activity against human SW620 cells harboring KRAS G12V mutant assessed as reduction in cell growth incubated for 72 hrs by MTT assay. To be noted: SW-620, 72 h. Format: functional, cell-based.
For series [15], the system named is NCI-H1975. The series can be described thus: Inhibition of cell migration in human NCI-H1975 cells incubated for 24 to 48 hrs by scratch wound healing assay. To be noted: dose 0.05-0.5 µM, time 24-48 hrs, DDE = dose-dependent effect. The format is functional, cell-based.
The subject of the next series is NCI-H358. The series can be described thus: Antiproliferative activity against human NCI-H358 cells harboring KRAS G12C mutant assessed as reduction in cell growth incubated for 72 hrs by MTT assay. Format: functional, cell-based. To be noted: NCI-H358, 72 h.

A word on the pIC50: it is −log10 of the IC50, conventionally taken in molar units. What is called IC50 is the concentration that gives 50% inhibition.

pIC50: −log10 of the molar value. Active and inactive are the calls of the source. The calls are words filed in the database; no cut-off is given here.

Epidermal growth factor receptor (Homo sapiens, UniProt P00533, L858R/T790M), sequence (P00533 25-1210 T790M/L858R limits assumed): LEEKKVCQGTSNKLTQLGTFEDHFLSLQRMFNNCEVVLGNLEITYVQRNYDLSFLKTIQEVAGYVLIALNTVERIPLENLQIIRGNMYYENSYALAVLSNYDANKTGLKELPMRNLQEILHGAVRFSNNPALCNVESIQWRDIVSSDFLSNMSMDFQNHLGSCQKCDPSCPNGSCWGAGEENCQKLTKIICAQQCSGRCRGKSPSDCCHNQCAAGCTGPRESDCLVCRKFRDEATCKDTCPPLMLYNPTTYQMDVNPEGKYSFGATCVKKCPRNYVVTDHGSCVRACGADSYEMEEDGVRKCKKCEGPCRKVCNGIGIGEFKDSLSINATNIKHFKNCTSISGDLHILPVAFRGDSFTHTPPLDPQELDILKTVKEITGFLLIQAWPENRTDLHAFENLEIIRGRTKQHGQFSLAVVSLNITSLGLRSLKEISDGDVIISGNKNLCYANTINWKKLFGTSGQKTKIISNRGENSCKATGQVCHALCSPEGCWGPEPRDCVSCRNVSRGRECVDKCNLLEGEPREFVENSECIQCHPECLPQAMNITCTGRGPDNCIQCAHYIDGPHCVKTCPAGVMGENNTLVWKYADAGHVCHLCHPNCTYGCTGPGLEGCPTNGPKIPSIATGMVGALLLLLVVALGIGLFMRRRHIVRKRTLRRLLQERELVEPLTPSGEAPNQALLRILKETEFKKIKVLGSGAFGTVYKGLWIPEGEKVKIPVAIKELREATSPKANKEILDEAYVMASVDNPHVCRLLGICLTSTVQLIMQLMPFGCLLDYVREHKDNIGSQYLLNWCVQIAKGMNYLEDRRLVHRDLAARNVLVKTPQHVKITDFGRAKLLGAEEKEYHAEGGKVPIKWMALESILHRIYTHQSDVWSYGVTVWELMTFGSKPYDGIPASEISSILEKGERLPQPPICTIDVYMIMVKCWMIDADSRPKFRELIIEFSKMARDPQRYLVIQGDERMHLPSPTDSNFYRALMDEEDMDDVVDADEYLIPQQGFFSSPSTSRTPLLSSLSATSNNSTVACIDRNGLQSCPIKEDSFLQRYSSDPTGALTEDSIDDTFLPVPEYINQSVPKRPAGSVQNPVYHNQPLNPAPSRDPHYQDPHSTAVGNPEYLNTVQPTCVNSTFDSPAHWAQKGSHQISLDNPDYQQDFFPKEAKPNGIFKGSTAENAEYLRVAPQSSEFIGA
Epidermal growth factor receptor (Homo sapiens, UniProt P00533), sequence (P00533 whole entry): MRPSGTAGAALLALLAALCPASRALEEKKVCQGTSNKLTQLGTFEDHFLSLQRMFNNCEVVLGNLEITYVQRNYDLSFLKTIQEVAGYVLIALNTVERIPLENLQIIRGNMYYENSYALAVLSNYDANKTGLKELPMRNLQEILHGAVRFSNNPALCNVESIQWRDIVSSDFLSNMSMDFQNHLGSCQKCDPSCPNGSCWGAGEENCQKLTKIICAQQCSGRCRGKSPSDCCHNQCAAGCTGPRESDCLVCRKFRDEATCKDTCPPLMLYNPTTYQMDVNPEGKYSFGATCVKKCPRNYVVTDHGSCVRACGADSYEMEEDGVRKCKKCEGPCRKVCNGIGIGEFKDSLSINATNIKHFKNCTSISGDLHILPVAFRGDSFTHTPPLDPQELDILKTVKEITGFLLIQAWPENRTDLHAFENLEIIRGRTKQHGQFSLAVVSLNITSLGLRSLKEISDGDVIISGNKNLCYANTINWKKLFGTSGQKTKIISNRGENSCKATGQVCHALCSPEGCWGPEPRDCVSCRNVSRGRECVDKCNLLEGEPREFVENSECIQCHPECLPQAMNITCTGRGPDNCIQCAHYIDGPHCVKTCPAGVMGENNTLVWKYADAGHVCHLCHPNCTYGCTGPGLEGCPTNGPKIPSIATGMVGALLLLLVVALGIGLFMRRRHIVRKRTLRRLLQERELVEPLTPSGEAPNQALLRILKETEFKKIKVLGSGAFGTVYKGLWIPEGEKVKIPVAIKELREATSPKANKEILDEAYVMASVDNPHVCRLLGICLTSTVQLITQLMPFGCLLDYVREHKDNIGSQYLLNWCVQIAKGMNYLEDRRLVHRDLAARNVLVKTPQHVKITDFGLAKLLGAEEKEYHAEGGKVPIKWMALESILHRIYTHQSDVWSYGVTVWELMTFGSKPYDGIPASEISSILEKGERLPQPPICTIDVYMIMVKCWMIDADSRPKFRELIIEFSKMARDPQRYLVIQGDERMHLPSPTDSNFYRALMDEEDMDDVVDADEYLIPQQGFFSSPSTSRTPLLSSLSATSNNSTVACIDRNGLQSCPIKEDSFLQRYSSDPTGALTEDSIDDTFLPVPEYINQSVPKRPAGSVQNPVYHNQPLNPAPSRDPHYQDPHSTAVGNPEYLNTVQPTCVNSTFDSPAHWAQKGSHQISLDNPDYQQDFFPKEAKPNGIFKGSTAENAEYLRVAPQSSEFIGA

Turning to `C=CC(=O)N1CCC(Oc2nc(Nc3ccc(N4CCN(C)CC4)cc3)nc3ccsc23)CC1`, the outcome in the series with NCI-H1975 [1], in the series with NCI-H1975 [9], in the series with NCI-H1975 [10] and with NCI-H1975 [11] was Active. The negative logarithm of the IC50 (pIC50) in [2] was 8.31; in the series on ASPC1, 5.27; with NCI-H1975 [13] it was 6.21; in series [14], 6.44; in the series with SW-620, 5.13; in the series with NCI-H358, 4.72. For the same compound, the selectivity ratio in series [3] and in series [12] was 13 each time. The inhibition entry is “Tde” with NCI-H1975 [4] and “Dde” in the series on NCI-H1975 [15]. Moreover, the values for the IC50 at 72 h in [5], in series [6] and in series [7] were 9.05 µM, 4.18 µM and 8.45 µM, respectively. Besides, in the series with NCI-H1975 [8], the Activity entry was “Dde”. Moreover, the Ratio IC50 in the series filed under Homo sapiens was determined as 73.3.
